Data taken from patent publication US20180147171A1, “TRANS10:CIS12 ISOMER OF CONJUGATED LINOLEIC ACID AS A THERAPEUTIC AND PREVENTATIVE AGENT FOR HYPERTENSION SPECIFIC TO PREGNANCY” (Wisconsin Alumni Research Foundation, priority 2012, published 2018).

What was measured:
[1] = tested on: ovine uterine artery endothelial cells from pregnant sheep (P-UAEC); experiment: Fura-2 [Ca2+]i imaging: ATP stimulated Ca2+ burst number after VEGF pretreatment, with or without rescue agent; assay type: cell-based; settings: for CLA rescue of VEGF inhibitory effects on subsequent ATP burst number: t10:c12 CLA 50 uM added before VEGF165 10 ng/ml, compared with PP2 10 uM; for CLA rescue of VEGF inhibitory effects on subsequent ATP burst number / rescue from VEGF165 mediated inhibition of subsequent ATP stimulated Ca2+ bursts: 30 min; for rescue from VEGF165 mediated inhibition of subsequent ATP stimulated Ca2+ bursts: rescue agent 10 uM added right before VEGF165 10 ng/ml, second ATP 100 uM response as % of first
Source text: Studies in ovine uterine artery endothelial cells from pregnant sheep (P-UAEC). P-UAEC are a well-established cell model of endothelial cells isolated from uterine arteries and maintained in culture to passage 3 before freezing for future use.
Isolation of UAECs: Uterine arteries were obtained from Polypay and mixed Western breed nonpregnant sheep (n=4) and pregnant ewes (n=6) at 120-130 days of gestation during nonsurvival surgery, as described in the art. Procedures for animal handling and protocols for experimental procedures were approved by the University of Wisconsin-Madison Research Animal Care Committees of both the School of Medicine and Public Health and the College of Agriculture and Life Sciences and follow the recommended American Veterinary Medicine Association guidelines for humane treatment and euthanasia of laboratory farm animals.
Fura-2 [Ca^2+]i Imaging Studies: Uterine artery endothelial cells plated to 35-mm dishes with glass coverslip windows (MatTek Corp.) were grown to the required density (20%-100%, as described) and then loaded with 5 μM Fura-2 AM in Krebs buffer (125 mM NaCl, 5 mM KCl, 1 mM MgSO4, 1 mM KH2PO4, 6 mM glucose, 2 mM CaCl2, and 25 mM HEPES, pH 7.4) for 45 min. After rinsing and incubating a further 30 min to complete ester hydrolysis, Fura-2 loading was verified by viewing at 380-nm ultraviolet excitation on a Nikon inverted microscope (TS100; Melville, N.Y.). About 60 cells were then preselected and video recordings commenced using alternate excitation at 340 and 380 nm at 1-sec intervals and measuring emitted light using a digital camera. From the ratio of emission at 510 nm detected at the two excitation wavelengths, and by comparison to a standard curve established for the same settings using buffers of known free Ca^2+ concentration, the [Ca^2+]i was then calculated for individual cells in real time using InCyt Im2 software (Intracellular Imaging Inc., Cincinnati, Ohio).
Data in graphs is calculated comparing the cells repeated burst patterns before and after repeat treatment. ATP 100 μM 30 min followed by ATP 100 uM 30 min gives a marginal decline in number of Ca^2+ bursts (as defined in the art). However other agents activating protein kinases such as ERK and Src cause closure of CX43 and so loss of associated bursts. Therefore to perform the analysis, ATP stimulation is performed once to establish an uninhibited response for each cell. Then the inhibitory treatment under study is given (VEGF, 10 ng/ml or equivalent). After 30 minutes the second ATP treatment begins and burst response is expressed as % of the first ATP response. To then further test the protective or rescue effect of kinase inhibitors we follow the same protocol but add the rescue agent right before the VEGF. U0126 is an MEK/ERK pathway blocked, PP2 is a Src pathway blocker, and CLA is the test compound.

ERK and Src signaling = settings: cancer cells; earlier finding; cited from earlier work
CX43 = experiment: Phosphorylation of CX43 at specific inhibitory sites in VEGF-treated uterine artery endothelial cells; assay type: cell-based, sheep; settings: cultured uterine artery endothelial cells from pregnant animals, VEGF inhibited, with rescue agent

For VEGF, the “effect of factor pretreatment on subsequent ATP stimulated Ca2+ bursts” value ([1]; 30 min pretreatment, 10 ng/ml, FIG. 3) was “inhibitory effects”.
For CCCCC/C=C\C=C\CCCCCCCCC(=O)O [t10:c12 CLA, t10:c12 conjugated linoleic acid], the “CLA rescue of VEGF inhibitory effects on subsequent ATP burst number” value (shortened to “CLA rescue of VEGF inhibitory effects”) ([1]; FIG. 4) is listed as “can achieve the same rescue effect as PP2”, the “CLA rescue of VEGF inhibitory effects” value ([1]; FIG. 4, listed as CLA) is listed as “improvement of function beyond rescue” and the “inhibition of ERK and Src kinase signaling pathways” value (ERK and Src signaling) is listed as “can inhibit these pathways”.
In the case of N#CC(=C(/N)Sc1ccccc1N)/C(C#N)=C(\N)Sc1ccccc1N [U0126], the “rescue from VEGF165 mediated inhibition of subsequent ATP stimulated Ca2+ bursts” value ([1]; FIG. 3) was “can rescue the cells” and the “phosphorylation of CX43 at specific inhibitory sites” value (CX43) was “reversal of the phosphorylation of CX43”.
For CC(C)(C)n1nc(-c2ccc(Cl)cc2)c2c(N)ncnc21 [PP2], the “rescue from VEGF165 mediated inhibition of subsequent ATP stimulated Ca2+ bursts” value ([1]; FIG. 3) was “can rescue the cells” and the “phosphorylation of CX43 at specific inhibitory sites” value (CX43) was “reversal of the phosphorylation of CX43”.
In the case of CCCCCC/C=C/C=C\CCCCCCCC(=O)O [c9:t11 CLA], the “CLA rescue of VEGF inhibitory effects” value ([1]; FIG. 4) was “have not achieved rescue”.
